Experimental data from patent US8063225B2, “Tricyclic compound derivatives useful in the treatment of neoplastic diseases, inflammatory disorders and immunomodulatory disorders” (Chembridge Corporation, priority 2006, dated 2011).

Assays:
TrkA = molecular target: T1, TrkA (Homo sapiens, UniProt P04629); assay: Tyrosine kinase assay (Kinase-Glo or AlphaScreen), TrkA; details: biochemical tyrosine kinase assay
T1 construct: 6×His- or GST-tagged kinase domain fragments of the corresponding RTKs expressed in baculovirus system; host or cells: baculovirus system
T1 sequence (P04629 510-781 limits assumed, species assumed): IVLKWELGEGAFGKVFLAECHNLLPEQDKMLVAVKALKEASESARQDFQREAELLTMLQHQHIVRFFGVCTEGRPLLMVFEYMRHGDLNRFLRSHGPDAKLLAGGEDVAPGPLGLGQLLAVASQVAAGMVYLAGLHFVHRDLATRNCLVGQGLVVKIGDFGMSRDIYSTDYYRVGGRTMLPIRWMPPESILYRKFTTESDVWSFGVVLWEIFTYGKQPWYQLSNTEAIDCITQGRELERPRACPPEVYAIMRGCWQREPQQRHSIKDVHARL
Description: To determine inhibition of several tyrosine kinases, such as IGF1R, InsR, Alk, TrkA and Jak2, kinase assays are conducted using either Kinase-Glo (Promega) or AlphaScreen (PerkinElmer) kinase assay platforms. The Kinase-Glo Luminescent Kinase Assay is a homogeneous method for measuring kinase activity by determining the amount of ATP remaining after a kinase reaction. The luminescent signal is proportional to the amount of ATP and inversely proportional to the amount of kinase activity. Tyrosine kinase PT66 AlphaScreen Assay is a high-sensitivity homogeneous, anti-phosphotyrosine antibody-mediated luminescent proximity method measuring, incorporation of phosphate in synthetic poly(Glu-Tyr) substrate. The kinase preparations used consist of purified recombinant, 6×His- or GST-tagged kinase domain fragments of the corresponding RTKs expressed in baculovirus system.
The IGF1R tyrosine kinase is assayed in Kinase-Glo ATP depletion assay using the synthetic polymer poly(Glu-Tyr, 4:1) (Sigma Chemicals) as a phosphoacceptor substrate. Each reaction mixture consists of a total volume of 10 μl and contains 40 ng of the enzyme, 5 μg of poly(Glu-Tyr), 10 μM of ATP and variable concentrations of test compounds. The mixtures also contain 50 mM Tris-HCl, pH 7.5; 5 mM MgCl2; 5 mM MnCl2; 2 mM DTT and 0.01% Tween 20. The reaction mixtures are incubated at 37° C. for 60 minutes and residual concentration of ATP in the mixture is determined by adding luciferase-containing Kinase-Glo (Promega) development reagent and counting luminescence levels using Fusion Universal Microplate Analyzer (PerkinElmer). Tested compounds are dissolved in dimethyl sulfoxide to a stock concentration of 10 mM and are typically evaluated in the assay at eight concentrations in 1 nM to 20 μM range, each in quadruplicate. […] IC50 values are derived by non-linear regression analysis using Prism 3.0 software (Graphpad Software). Other tyrosine kinases are assayed according to the same protocol after titrating amount of the enzyme to provide optimal signal-to-noise ratio and no more than 30% of total ATP consumption in the reaction conditions used.
The IGF1R tyrosine kinase is assayed in Phosphotyrosine (PT66 or PT 100) AlphaScreen chemiluminescent assay (PerkinElmer) according to the manufacturerer's recommendations. Each kinase reaction mixture consists of a total volume of 15 μl and contains 0.1-1 ng of the enzyme, 7 ng of biotinylated poly(Glu-Tyr) (Cis-Bio), 10 μM of ATP and variable concentrations of test compounds. The mixtures also contain 50 mM Tris-HCl, pH 7.5; 5 mM MgCl2; 5 mM MnCl2; 2 mM DTT and 0.01% Tween 20. The reaction mixtures are incubated at room temperature for 30 minutes. Ten (10) μl of the mixture of […] and donor beads (as supplied by the manufacturer) is then added to the reaction and the incubation is continued for an additional 60 minutes.

H929 (multiple myeloma) = assay: Cell proliferation inhibition, Cell Titer-Glo, H929; format: cell-based; details: Homo sapiens, NCI-H929; cell proliferation assay, H929 cells
Procedure, shortened: (§1)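 Cells seeded at 2500-5000 per well with serially diluted compound for typically 3 days. Viable cells measured by ATP luminescence (Cell Titer-Glo); IC50 from proliferation-inhibition curves.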

[1] = system: HEK293 (human normal embryonic kidney); assay: Cell proliferation inhibition, Cell Titer-Glo, HEK293; format: cell-based; details: cell proliferation assay, HEK293 cells, read-out: HEK 293 IC50
Procedure, shortened: as §1

[2] = system: CHO (chinese hamster ovary); assay: Cell proliferation inhibition, Cell Titer-Glo, CHO; format: cell-based; details: Cricetulus griseus; cell proliferation assay, CHO cells
Procedure, shortened: as §1

Karpas-299 = assay: Cell proliferation inhibition, Cell Titer-Glo, Karpas-299; format: cell-based; details: Homo sapiens; cell proliferation assay, Karpas-299 cells
Procedure, shortened: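 Karpas 299 cells were seeded into white, clear-bottomed 384-well culture plates at 2500-5000 cells per well and exposed to serial dilutions of test compounds for about 3 days. Viable cell numbers were then measured with the Cell Titer-Glo Luminescent Cell Viability Assay (Promega), which detects total ATP, and IC50 values for proliferation inhibition were derived.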

K562 = assay: Cell proliferation inhibition, Cell Titer-Glo, K562; format: cell-based; details: Homo sapiens; cell proliferation assay, K562 cells
Procedure, shortened: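 K562 cells were seeded at 2500-5000 cells per well in white, clear-bottomed 384-well culture plates and treated with dilutions of test compounds for typically 3 days. Viable cells were quantified with the Cell Titer-Glo Luminescent Cell Viability Assay (Promega), which measures total ATP, read on a luminescence plate reader to derive IC50 values for proliferation inhibition.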

IC50 (TrkA): < 0.5 µM
IC50 (H929 (multiple myeloma)): 0.5 to 5 µM
IC50 (Karpas-299): > 15 µM
IC50 (K562): 5 to 15 µM
SMILES: Cc1ccc2c(ccn2C[C@H](O)CNc2cc[nH]c(=O)c2-c2nc3cc4c(cc3[nH]2)C(=O)N(C2CCN(C)CC2)C4=O)c1 [compound 131]
IC50 [1]: 0.5 to 5 µM
IC50 [2]: 5 to 15 µM
